From PubChem BioAssay AID1963434 (Molecular Pharmacology Branch, DTP, NCI, 2024)

Test system: 755483-174-R-J1-PDC complex spheroid growth, percent test/control
Experiment: Anticancer human tumor 755483-174-R-J1-PDC patient-derived rhabdomyosarcoma cell line growth inhibition [Asc]
Conditions: for IC50: curve of first compound; for viability, T/C: stronger effect = lower value; active = viability on the fitted dose curve at most 10% of control; inactive = the rest
Outline: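 Tumor cells were grown as multicellular spheroids with stromal HUVEC and mesenchymal stem cells and treated singly or in combination. Concentrations fell in half-log steps from the clinical Cmax, or from 10 microM where none was known.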

[1] = second compound 0.03 µM, first compound 0.0316 µM
[2] = second compound 0.03 µM, first compound 0.1 µM
[3] = second compound 0.03 µM, first compound 0.316 µM
[4] = second compound 0.03 µM, first compound 1 µM
[5] = second compound 0.03 µM, first compound 3.16 µM
[6] = second compound 0.03 µM, first compound 10 µM
[7] = second compound 0.0949 µM, first compound 0.0316 µM
[8] = second compound 0.0949 µM, first compound 0.1 µM
[9] = second compound 0.0949 µM, first compound 0.316 µM
[10] = second compound 0.0949 µM, first compound 1 µM
[11] = second compound 0.0949 µM, first compound 3.16 µM
[12] = second compound 0.0949 µM, first compound 10 µM
[13] = second compound 0.3 µM, first compound 0.0316 µM
[14] = second compound 0.3 µM, first compound 0.1 µM
[15] = second compound 0.3 µM, first compound 0.316 µM
[16] = second compound 0.3 µM, first compound 1 µM
[17] = second compound 0.3 µM, first compound 3.16 µM
[18] = second compound 0.3 µM, first compound 10 µM
[19] = second compound 0.949 µM, first compound 0.0316 µM
[20] = second compound 0.949 µM, first compound 0.1 µM
[21] = second compound 0.949 µM, first compound 0.316 µM
[22] = second compound 0.949 µM, first compound 1 µM
[23] = second compound 0.949 µM, first compound 3.16 µM
[24] = second compound 0.949 µM, first compound 10 µM
[25] = second compound 3 µM, first compound 0.0316 µM
[26] = second compound 3 µM, first compound 0.1 µM
[27] = second compound 3 µM, first compound 0.316 µM
[28] = second compound 3 µM, first compound 1 µM
[29] = second compound 3 µM, first compound 3.16 µM
[30] = second compound 3 µM, first compound 10 µM
[31] = second compound 0.03 µM, first compound 0.00316 µM
[32] = second compound 0.03 µM, first compound 0.01 µM
[33] = second compound 0.0949 µM, first compound 0.00316 µM
[34] = second compound 0.0949 µM, first compound 0.01 µM
[35] = second compound 0.3 µM, first compound 0.00316 µM
[36] = second compound 0.3 µM, first compound 0.01 µM
[37] = second compound 0.949 µM, first compound 0.00316 µM
[38] = second compound 0.949 µM, first compound 0.01 µM
[39] = second compound 3 µM, first compound 0.00316 µM
[40] = second compound 3 µM, first compound 0.01 µM
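Also: spheroids exposed to compounds for seven days before readout.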

C#Cc1c(F)ccc2cc(O)cc(-c3ncc4c(N5CC6CCC(C5)N6)nc(OCC56CCCN5CC(F)C6)nc4c3F)c12 (stereo not given) + CCN1C(C(=O)NC23CCC(C(=O)O)(CC2)CC3)C(c2cccc(Cl)c2F)C2(C(=O)Nc3cc(Cl)ccc32)C12CCCCC2
7200 nM: IC50 (second compound 3 µM)
8900 nM: IC50 (second compound 0.949 µM)
8790 nM: IC50 (second compound 0.03 µM)
9370 nM: IC50 (second compound 0.0949 µM)
inactive: viability, T/C [1] 90.5% | viability, T/C [2] 96.1% | viability, T/C [3] 95.5% | viability, T/C [4] 120% | viability, T/C [5] 71.8% | viability, T/C [6] 47.2% | viability, T/C [7] 135% | viability, T/C [8] 110% | viability, T/C [9] 128% | viability, T/C [10] 121% | viability, T/C [11] 59.8% | viability, T/C [12] 49.4% | viability, T/C [13] 79.4% | viability, T/C [14] 88.4% | viability, T/C [15] 143% | viability, T/C [16] 89.1% | viability, T/C [17] 91.7% | viability, T/C [18] 30.5% | viability, T/C [19] 78.9% | viability, T/C [20] 79.5% | viability, T/C [21] 117% | viability, T/C [22] 118% | viability, T/C [23] 88.2% | viability, T/C [24] 45.7% | viability, T/C [25] 111% | viability, T/C [26] 106% | viability, T/C [27] 116% | viability, T/C [28] 114% | viability, T/C [29] 80.6% | viability, T/C [30] 37.8%
6910 nM: IC50 (second compound 0.3 µM)

C=C(F)C(=O)N1CCN(c2nc(OCC3CCCN3C)nc3c2CCN(c2cccc4cccc(Cl)c24)C3)CC1CC#N (stereo not given) + CCN1C(C(=O)NC23CCC(C(=O)O)(CC2)CC3)C(c2cccc(Cl)c2F)C2(C(=O)Nc3cc(Cl)ccc32)C12CCCCC2
1430 nM: IC50 (second compound 0.3 µM)
1600 nM: IC50 (second compound 3 µM)
2170 nM: IC50 (second compound 0.03 µM)
active: viability, T/C [6] 0.12% | viability, T/C [12] 0.13% | viability, T/C [18] 0.51% | viability, T/C [24] 0.31% | viability, T/C [30] 0.24%
1890 nM: IC50 (second compound 0.949 µM)
1660 nM: IC50 (second compound 0.0949 µM)
inactive: viability, T/C [1] 81% | viability, T/C [2] 120% | viability, T/C [3] 91.5% | viability, T/C [4] 89.4% | viability, T/C [5] 30.9% | viability, T/C [7] 91.9% | viability, T/C [8] 93.2% | viability, T/C [9] 83.1% | viability, T/C [10] 66.6% | viability, T/C [11] 29.6% | viability, T/C [13] 82.9% | viability, T/C [14] 106% | viability, T/C [15] 87% | viability, T/C [16] 56.6% | viability, T/C [17] 28.5% | viability, T/C [19] 88.4% | viability, T/C [20] 97.3% | viability, T/C [21] 89.2% | viability, T/C [22] 69.3% | viability, T/C [23] 33.8% | viability, T/C [25] 79.5% | viability, T/C [26] 81.7% | viability, T/C [27] 86.4% | viability, T/C [28] 65.7% | viability, T/C [29] 25.3%

C=CC(=O)N1CCN(c2nc(=O)n(-c3c(C)ccnc3C(C)C)c3nc(-c4c(O)cccc4F)c(F)cc23)C(C)C1 (stereo not given) + CCN1C(C(=O)NC23CCC(C(=O)O)(CC2)CC3)C(c2cccc(Cl)c2F)C2(C(=O)Nc3cc(Cl)ccc32)C12CCCCC2
inactive: viability, T/C [1] 92.4% | viability, T/C [2] 83.7% | viability, T/C [3] 99.7% | viability, T/C [4] 88.7% | viability, T/C [5] 99.1% | viability, T/C [6] 65.7% | viability, T/C [7] 88.6% | viability, T/C [8] 103% | viability, T/C [9] 82.4% | viability, T/C [10] 97.8% | viability, T/C [11] 98.4% | viability, T/C [12] 78% | viability, T/C [13] 80.8% | viability, T/C [14] 80.6% | viability, T/C [15] 85.3% | viability, T/C [16] 103% | viability, T/C [17] 125% | viability, T/C [18] 88.8% | viability, T/C [19] 89.1% | viability, T/C [20] 82.7% | viability, T/C [21] 115% | viability, T/C [22] 100% | viability, T/C [23] 107% | viability, T/C [24] 83.2% | viability, T/C [25] 84.4% | viability, T/C [26] 107% | viability, T/C [27] 94.5% | viability, T/C [28] 81.2% | viability, T/C [29] 76.7% | viability, T/C [30] 63.4%
> 10000 nM: IC50 (second compound 0.03 µM) | IC50 (second compound 0.0949 µM) | IC50 (second compound 0.3 µM) | IC50 (second compound 0.949 µM) | IC50 (second compound 3 µM)

CNC(C)C(=O)NC1CN(S(=O)(=O)c2cccc(S(=O)(=O)N3CCC4CCC(C(=O)NC(c5ccccc5)c5ccccc5)N4C(=O)C(NC(=O)C(C)NC)C3)c2)CCC2CCC(C(=O)NC(c3ccccc3)c3ccccc3)N2C1=O (stereo not given) + CCN1C(C(=O)NC23CCC(C(=O)O)(CC2)CC3)C(c2cccc(Cl)c2F)C2(C(=O)Nc3cc(Cl)ccc32)C12CCCCC2
9.97 nM: IC50 (second compound 0.949 µM)
12.5 nM: IC50 (second compound 3 µM)
inactive: viability, T/C [31] 80.3% | viability, T/C [32] 65.6% | viability, T/C [1] 51.9% | viability, T/C [2] 52% | viability, T/C [3] 39.7% | viability, T/C [4] 36.2% | viability, T/C [33] 74.6% | viability, T/C [34] 64.6% | viability, T/C [7] 51.1% | viability, T/C [8] 40.9% | viability, T/C [9] 43.9% | viability, T/C [10] 32.5% | viability, T/C [35] 76.7% | viability, T/C [36] 80.9% | viability, T/C [13] 56.1% | viability, T/C [14] 39.1% | viability, T/C [15] 46% | viability, T/C [16] 59.5% | viability, T/C [37] 92.7% | viability, T/C [38] 48.8% | viability, T/C [19] 52.6% | viability, T/C [20] 56.2% | viability, T/C [21] 42% | viability, T/C [22] 34.6% | viability, T/C [39] 51.5% | viability, T/C [40] 54% | viability, T/C [25] 38.8% | viability, T/C [26] 36.8% | viability, T/C [27] 23.5% | viability, T/C [28] 54.1%
68.5 nM: IC50 (second compound 0.03 µM)
76.7 nM: IC50 (second compound 0.3 µM)
42.9 nM: IC50 (second compound 0.0949 µM)

COc1c(OCCCN2CCOCC2)ccc2c3n(c(=NC(=O)c4cnc(N)nc4)nc12)CCN3 + CCN1C(C(=O)NC23CCC(C(=O)O)(CC2)CC3)C(c2cccc(Cl)c2F)C2(C(=O)Nc3cc(Cl)ccc32)C12CCCCC2
31.3 nM: IC50 (second compound 0.03 µM)
inactive: viability, T/C [31] 70.7% | viability, T/C [32] 70.5% | viability, T/C [1] 49.1% | viability, T/C [2] 19.2% | viability, T/C [33] 75.5% | viability, T/C [34] 39.5% | viability, T/C [7] 48.5% | viability, T/C [8] 25.9% | viability, T/C [9] 25.9% | viability, T/C [10] 7.18% | viability, T/C [35] 82.1% | viability, T/C [36] 89.5% | viability, T/C [13] 46.3% | viability, T/C [14] 22.7% | viability, T/C [15] 12.7% | viability, T/C [16] 5.77% | viability, T/C [37] 75.7% | viability, T/C [38] 64.9% | viability, T/C [19] 45.9% | viability, T/C [20] 30.7% | viability, T/C [21] 12.1% | viability, T/C [39] 53.2% | viability, T/C [40] 64.1% | viability, T/C [25] 59.9% | viability, T/C [26] 21.3% | viability, T/C [27] 13.8% | viability, T/C [28] 7.35%
41.7 nM: IC50 (second compound 3 µM)
13.7 nM: IC50 (second compound 0.0949 µM)
active: viability, T/C [3] 8.52% | viability, T/C [4] 6.46% | viability, T/C [22] 9.33%
26.2 nM: IC50 (second compound 0.949 µM)
31.2 nM: IC50 (second compound 0.3 µM)
